Article PMC9586926, “An efflux-susceptible antibiotic-adjuvant with systemic efficacy against mouse infections” (Scientific Reports, 2022)
Where a SMILES comes first, the peptide text is derived from it. [ ]: non-standard residue; d: D form. The star is where a group is joined. 12Ado = NCCCCCCCCCCCC(=O)O; Decanoyl = CCCCCCCCCC(=O)*; Dab = NCC[C@H](N)C(=O)O

Test system: UPEC CFT073
Test: Urinary-tract infection model
Format: in vivo, mice
Experimental: The study is reported in accordance with ARRIVE guidelines.
Lipopeptides potential application in monotherapy and/or combination-therapies was explored with two infection models. In the peritonitis-sepsis model, mice (n = 10 per group) were first rendered neutropenic by two intraperitoneal (I.P.) injections of 0.3 ml containing 150 mg/kg and 100 mg/kg cyclophosphamide, administered 4 days and 1 day before the experiment, respectively. […] Mice survival was recorded for up to 7 days. In a variant assay, bacteria in PBS (1.4 × 10^6) were pre-treated with 10 µM lipopeptides for 15 min, similarly administered, and mice survival was recorded for up to 3 days. In the urinary-tract infection (UTI) model, mice (N = 5 mice per group) were anesthetized by a single I.P. injection (0.2 ml) containing a mixture of ketamine (100 mg/kg) and xylazine (5 mg/kg). Following application of an analgesic 2% lidocaine gel on their penises, mice were infected intra-urethraly using a 24-gauge catheter with 1.2 × 10^8 CFU/mouse (0.05 ml) and treated with the vehicle control (S.C., 1 h post-infection), 2 mg/kg rifampin (oral gavage, immediately before anesthesia), 7.5 mg/kg q.i.d. lipopeptides (S.C., starting 1 h post-infection), or both. Mice were sacrificed 24 h post-infection, their bladder and kidneys aseptically excised, suspended in 5 ml of sterile PBS, homogenized for 3 min using a bench-top homogenizer, serially tenfold diluted in saline, plated on LB agar, and incubated over-night at 37 °C for enumeration.

**Q.** How did the bladder bacterial load (24 h post-infection, 2 mg/kg rifampin, 7.5 mg/kg q.i.d. C10BBc12B or both, n = 5) turn out when CCCCCCCCCC(=O)N[C@@H](CCN)C(=O)N[C@@H](CCN)C(=O)NCCCCCCCCCCCC(=O)N[C@@H](CCN)C(N)=O [C10BBc12B, decanoyl-bis.diaminobutyrate-aminododecanoyl-diaminobutyrate-amide] (Decanoyl-[Dab][Dab][12Ado][Dab]-NH2) was run?
**A.** The bladder bacterial load was “no reduction in bacterial load”.

**Q.** And the “efficacy of single dose regimen” value (single dose 7.5 or […] 1 h post infection, alone or in combination with rifampin)?
**A.** Its value is “essentially ineffective”.
